Entries after “also recorded” stand apart in the source; their conditions may differ. Marks after values point to notes of the source that are not given here.
Experiment: Salt screen: XRPD of isolated solids after drying at 40° C. and at 40° C./75% RH
Type: physicochemical
Conditions: for XRPD after drying at 40° C./75% RH: after 40° C. drying, dried at 40° C./75% RH for about 24 h, label = form after 40° C. drying; for XRPD after drying at 40° C.: isolated solids dried at 40° C. for about 24 h, label = wet form
Experimental: To approximately 20 mg of amorphous lyophilized osanetant was added 0.3 mL of solvent for liquid counterion experiments. 0.2 mL of solvent was employed for solid counterion experiments. […] To the stirring mixture was then added 1.05 mol eq. of the appropriate counterion. Where solid counterions were used, the vial which contained the counterion was washed in to the osanetant containing vial with 0.1 mL of the appropriate solvent. Additional solvent was added where necessary. The experiments were thermally cycled as follows: heated from 25 to 40° C. at a rate of 0.1° C./min; 1 h at 40° C.; Cool to 5° C. at a rate of 0.1° C.; 1 h at 5° C.; 40° C. at a rate of 0.1° C./min; […] The crystallization experiments were thermally cycled overnight, then slurries were isolated by centrifugation. XRPD analysis was carried out on any isolated solids or gums. The XRPD plate, and the isolated solids, were then dried at 40° C. for about 24 h, and XRPD analysis was repeated. The XRPD plate was then dried at 40° C./75% RH for about 24 h and XRPD analysis was again repeated. All other samples were allowed to evaporated at ambient temperature and pressure.

Structure (SMILES)	XRPD after drying at 40° C./75% RH	XRPD after drying at 40° C.	XRPD after drying at 40° C./75% RH (acetic acid)
CC(=O)N(C)C1(c2ccccc2)CCN(CCC[C@]2(c3ccc(Cl)c(Cl)c3)CCCN(C(=O)c3ccccc3)C2)CC1.O=C(O)C(O)C(O)C(=O)O [osanetant L-tartaric acid Form 1]	crystallinity was lost	no change	–
CC(=O)N(C)C1(c2ccccc2)CCN(CCCC2(c3ccc(Cl)c(Cl)c3)CCCN(C(=O)c3ccccc3)C2)CC1.O=C(O)C(O)C(O)C(=O)O [osanetant L-tartaric acid Form 2]	crystallinity was lost	no change	–
CC(=O)N(C)C1(c2ccccc2)CCN(CCC[C@]2(c3ccc(Cl)c(Cl)c3)CCCN(C(=O)c3ccccc3)C2)CC1.CC(=O)O [osanetant acetic acid Form 1, (R)-N-(1-(3-(1-benzoyl-3-(3,4-dichlorophenyl)piperidin-3-yl)propyl)-4-phenylpiperidin-4-yl)-N-methylacetamide acetic acid]	–	changed form on drying at 40 °C to Pattern 2	–
CC(=O)N(C)C1(c2ccccc2)CCN(CCC[C@]2(c3ccc(Cl)c(Cl)c3)CCCN(C(=O)c3ccccc3)C2)CC1.CC(=O)O [osanetant acetic acid Form 2, (R)-N-(1-(3-(1-benzoyl-3-(3,4-dichlorophenyl)piperidin-3-yl)propyl)-4-phenylpiperidin-4-yl)-N-methylacetamide acetic acid]	–	–	retained; also recorded: stable
CC(=O)N(C)C1(c2ccccc2)CCN(CCC[C@]2(c3ccc(Cl)c(Cl)c3)CCCN(C(=O)c3ccccc3)C2)CC1.O=S(=O)(O)c1ccccc1 [osanetant benzenesulfonic acid Form 2, (R)-N-(1-(3-(1-benzoyl-3-(3,4-dichlorophenyl)piperidin-3-yl)propyl)-4-phenylpiperidin-4-yl)-N-methylacetamide benzenesulfonic acid]	converted to Pattern 1; also recorded: Form 1	–	–
CC(=O)N(C)C1(c2ccccc2)CCN(CCC[C@]2(c3ccc(Cl)c(Cl)c3)CCCN(C(=O)c3ccccc3)C2)CC1.O=S(=O)(O)c1ccccc1 [osanetant benzenesulfonic acid Form 4, (R)-N-(1-(3-(1-benzoyl-3-(3,4-dichlorophenyl)piperidin-3-yl)propyl)-4-phenylpiperidin-4-yl)-N-methylacetamide benzenesulfonic acid]	converted to Pattern 1; also recorded: Form 1**	Form 4	–
CC(=O)N(C)C1(c2ccccc2)CCN(CCC[C@]2(c3ccc(Cl)c(Cl)c3)CCCN(C(=O)c3ccccc3)C2)CC1.O=C(O)c1ccccc1 [osanetant benzoic acid Form 1, (R)-N-(1-(3-(1-benzoyl-3-(3,4-dichlorophenyl)piperidin-3-yl)propyl)-4-phenylpiperidin-4-yl)-N-methylacetamide benzoic acid]	no change in form; also recorded: stable	no change in form	–
CC(=O)N(C)C1(c2ccccc2)CCN(CCC[C@]2(c3ccc(Cl)c(Cl)c3)CCCN(C(=O)c3ccccc3)C2)CC1.CCS(=O)(=O)O [osanetant ethanesulfonic acid Form 1, (R)-N-(1-(3-(1-benzoyl-3-(3,4-dichlorophenyl)piperidin-3-yl)propyl)-4-phenylpiperidin-4-yl)-N-methylacetamide ethanesulfonic acid]	–	Form 2	–
CC(=O)N(C)C1(c2ccccc2)CCN(CCC[C@]2(c3ccc(Cl)c(Cl)c3)CCCN(C(=O)c3ccccc3)C2)CC1.CCS(=O)(=O)O [osanetant ethanesulfonic acid Form 2, (R)-N-(1-(3-(1-benzoyl-3-(3,4-dichlorophenyl)piperidin-3-yl)propyl)-4-phenylpiperidin-4-yl)-N-methylacetamide ethanesulfonic acid]	Amorphous	–	–
CC(=O)N(C)C1(c2ccccc2)CCN(CCC[C@]2(c3ccc(Cl)c(Cl)c3)CCCN(C(=O)c3ccccc3)C2)CC1.O=C(O)/C=C/C(=O)O [osanetant fumaric acid Form 1]	crystallinity was lost	no change	–
CC(=O)N(C)C1(c2ccccc2)CCN(CCC[C@]2(c3ccc(Cl)c(Cl)c3)CCCN(C(=O)c3ccccc3)C2)CC1.CS(=O)(=O)O [osanetant methanesulfonic acid Form 1, (R)-N-(1-(3-(1-benzoyl-3-(3,4-dichlorophenyl)piperidin-3-yl)propyl)-4-phenylpiperidin-4-yl)-N-methylacetamide methanesulfonic acid]	Amorphous	Form 1	–
CC(=O)N(C)C1(c2ccccc2)CCN(CCC[C@]2(c3ccc(Cl)c(Cl)c3)CCCN(C(=O)c3ccccc3)C2)CC1.CS(=O)(=O)O [osanetant methanesulfonic acid Form 2, (R)-N-(1-(3-(1-benzoyl-3-(3,4-dichlorophenyl)piperidin-3-yl)propyl)-4-phenylpiperidin-4-yl)-N-methylacetamide methanesulfonic acid]	Amorphous	Form 2	–
CC(=O)N(C)C1(c2ccccc2)CCN(CCC[C@]2(c3ccc(Cl)c(Cl)c3)CCCN(C(=O)c3ccccc3)C2)CC1.Cc1ccc(S(=O)(=O)O)cc1 [osanetant p-toluenesulfonic acid Form 2, (R)-N-(1-(3-(1-benzoyl-3-(3,4-dichlorophenyl)piperidin-3-yl)propyl)-4-phenylpiperidin-4-yl)-N-methylacetamide p-toluenesulfonic acid]	converted to Pattern 1; also recorded: Form 1	retained; also recorded: Form 2	–
CC(=O)N(C)C1(c2ccccc2)CCN(CCC[C@]2(c3ccc(Cl)c(Cl)c3)CCCN(C(=O)c3ccccc3)C2)CC1.Cc1ccc(S(=O)(=O)O)cc1 [osanetant p-toluenesulfonic acid Form 3, (R)-N-(1-(3-(1-benzoyl-3-(3,4-dichlorophenyl)piperidin-3-yl)propyl)-4-phenylpiperidin-4-yl)-N-methylacetamide p-toluenesulfonic acid]	–	converted to Pattern 4; also recorded: Form 4	–
CC(=O)N(C)C1(c2ccccc2)CCN(CCC[C@]2(c3ccc(Cl)c(Cl)c3)CCCN(C(=O)c3ccccc3)C2)CC1.Cc1ccc(S(=O)(=O)O)cc1 [osanetant p-toluenesulfonic acid Form 4, (R)-N-(1-(3-(1-benzoyl-3-(3,4-dichlorophenyl)piperidin-3-yl)propyl)-4-phenylpiperidin-4-yl)-N-methylacetamide p-toluenesulfonic acid]	lost crystallinity; also recorded: Amorphous	–	–
CC(=O)N(C)C1(c2ccccc2)CCN(CCC[C@]2(c3ccc(Cl)c(Cl)c3)CCCN(C(=O)c3ccccc3)C2)CC1.O=P(O)(O)O [osanetant phosphoric acid Form 1, (R)-N-(1-(3-(1-benzoyl-3-(3,4-dichlorophenyl)piperidin-3-yl)propyl)-4-phenylpiperidin-4-yl)-N-methylacetamide phosphoric acid]	converted to Pattern 4; also recorded: Form 4	Form 1	–
CC(=O)N(C)C1(c2ccccc2)CCN(CCC[C@]2(c3ccc(Cl)c(Cl)c3)CCCN(C(=O)c3ccccc3)C2)CC1.O=P(O)(O)O [osanetant phosphoric acid Form 2, (R)-N-(1-(3-(1-benzoyl-3-(3,4-dichlorophenyl)piperidin-3-yl)propyl)-4-phenylpiperidin-4-yl)-N-methylacetamide phosphoric acid]	converted to Pattern 4; also recorded: Form 4*	Form 2	–
CC(=O)N(C)C1(c2ccccc2)CCN(CCC[C@]2(c3ccc(Cl)c(Cl)c3)CCCN(C(=O)c3ccccc3)C2)CC1.O=P(O)(O)O [osanetant phosphoric acid Form 3, (R)-N-(1-(3-(1-benzoyl-3-(3,4-dichlorophenyl)piperidin-3-yl)propyl)-4-phenylpiperidin-4-yl)-N-methylacetamide phosphoric acid]	retained; also recorded: stable; also recorded: Form 3	Form 3	–
CC(=O)N(C)C1(c2ccccc2)CCN(CCC[C@]2(c3ccc(Cl)c(Cl)c3)CCCN(C(=O)c3ccccc3)C2)CC1.O=P(O)(O)O [osanetant phosphoric acid Form 4, (R)-N-(1-(3-(1-benzoyl-3-(3,4-dichlorophenyl)piperidin-3-yl)propyl)-4-phenylpiperidin-4-yl)-N-methylacetamide phosphoric acid]	stable	–	–
CC(=O)N(C)C1(c2ccccc2)CCN(CCC[C@]2(c3ccc(Cl)c(Cl)c3)CCCN(C(=O)c3ccccc3)C2)CC1.O=S(=O)(O)O [osanetant sulfuric acid Form 1, (R)-N-(1-(3-(1-benzoyl-3-(3,4-dichlorophenyl)piperidin-3-yl)propyl)-4-phenylpiperidin-4-yl)-N-methylacetamide sulfuric acid]	–	Form 2	–
CC(=O)N(C)C1(c2ccccc2)CCN(CCC[C@]2(c3ccc(Cl)c(Cl)c3)CCCN(C(=O)c3ccccc3)C2)CC1.O=S(=O)(O)O [osanetant sulfuric acid Form 2, (R)-N-(1-(3-(1-benzoyl-3-(3,4-dichlorophenyl)piperidin-3-yl)propyl)-4-phenylpiperidin-4-yl)-N-methylacetamide sulfuric acid]	Form 3*	–	–

Source: patent publication US20240336565A1, “SOLID FORMS OF OSANETANT” (Acer Therapeutics, Inc., priority 2021, published 2024)
